This series relates to rats. Kind of series: nephrotoxicity model: eicosanoids in plasma of rats receiving puromycin, LC-MS/MS. In kind it is in vivo. The conditions noted are these: 4 groups receiving different dosages of puromycin, FIG. 4. The method, then:
To determine free fatty acid metabolites in various biological materials, a small amount of sample (20 μL) was applied onto a filter spot containing stable isotopes for the various metabolites in a microtiter plate and extracted in aqueous methanol without further derivatization as described in FIG. 1. Separation of metabolites was done on a RP-HPLC (Zorbax Eclipse C18, 3.0×100 mm, 3.5 μm) column after injection of 20 μL extract using an Agilent 1100 system (Agilent Technologies) with an HTC PAL autosampler (CTC Analytics). Mobile phase compositions were A: H2O with 0.05% (v/v) formic acid and B: acetonitrile with 0.05% (v/v) formic acid. Flow rate was constant at 500 μL/min, metabolites were separated by gradient elution. Detection was done by MRM transitions in negative detection mode using an API4000Qtrap® equipped with an ESI source (Applied Biosystems). Quantification of metabolites was performed with Analyst v.1.4.2 quantitation.
Test cases of disease states show an increase of free fatty acids, prostaglandins and hydroxylated species in conjunction with pulmonary inflammations, prostate cancer and cardiovascular disease. […]
Plasma samples obtained from 4 groups of rats receiving different dosages of puromycin were analyzed.
FIGS. 4a, 4b, 4c and 4d. […] The concentrations of 4 different eicosanoids (as indicated) in rat plasma samples have been determined and normalized.

The record followed here is patent US20100233746A1, “Inflammation and Oxidative Stress Level Assay” (priority 2007, published 2010).

For the molecule `COc1ccc(C[C@H](N)C(=O)N[C@H]2[C@@H](O)[C@H](n3cnc4c(N(C)C)ncnc43)O[C@@H]2CO)cc1` [puromycin], the “cyclooxygenase and lipoxygenase activity (concentrations of 4 different eicosanoids in rat plasma, normalized)” value was “Increased cyclooxygenase and lipoxygenase activity”.
